In patent US20240262842A1, “SMALL MOLECULE INHIBITORS OF KRAS G12C MUTANT” (Merck Sharp & Dohme LLC, priority 2021, published 2024) one finds IC50 data, which are given here for seven compounds.

What is called IC50 is the concentration that gives 50% inhibition.

The target of the test is biotinylated KRAS G12C protein (GMP-PNP loaded) and GST-tagged Ras binding domain of c-RAF (Homo sapiens, UniProt P01116, C118S/C51S/C80L/G12C). Nature of the test: RAS:RAF-RBD binding assay (TR-FRET). To be noted: 30-minute incubation of compound with KRAS G12C before RAF-RBD; Table 4; read-out: IC50.
Chain of biotinylated KRAS G12C protein (GMP-PNP loaded) and GST-tagged Ras binding domain of c-RAF (P01116 with tags, fused parts or gaps isoform P01116-2 G12C/C51S/C80L/C118S): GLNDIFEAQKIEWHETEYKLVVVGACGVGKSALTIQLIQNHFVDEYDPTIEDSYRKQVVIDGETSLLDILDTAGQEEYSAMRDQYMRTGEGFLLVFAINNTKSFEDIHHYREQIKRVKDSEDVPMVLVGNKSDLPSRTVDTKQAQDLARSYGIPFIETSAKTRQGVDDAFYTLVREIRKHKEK
As for `COCc1nc2c3c(c(OC)cc2n1C)-c1cccn2c(C(=O)c4cc(F)c(NC(=O)/C=C/[C@@H]5C[C@@H](F)CN5)c(F)c4)cc(c12)CCN3C` (atropisomer, axis not shown) [Example 293, (E)-N-(2,6-difluoro-4-(7-methoxy-10-(methoxymethyl)-9,12-dimethyl-9,12,13,14-tetrahydroimidazo[4″,5″:5′,6′]benzo[1′,2′:2,3]azocino[4,5,6-hi]indolizine-2-carbonyl)phenyl)-3-((2S,4R)-4-fluoropyrrolidin-2-yl)acrylamide], the IC50 was determined as 16 nM.

In the case of `Cc1nc2c3c(c(OC(F)F)cc2n1C)-c1cccn2c(C(=O)c4cc(F)c(NC(=O)/C=C/CNC5(C)CC5)c(F)c4)cc(c12)CCN3C` [Example 300, (E)-N-(4-(7-(difluoromethoxy)-9,10,12-trimethyl-9,12,13,14-tetrahydroimidazo[4″,5″:5′,6′]benzo[1′,2′:2,3]azocino[4,5,6-hi]indolizine-2-carbonyl)-2,6-difluorophenyl)-4-((1-methylcyclopropyl)amino)but-2-enamide], the IC50 amounted to 1.22 nM.

Take `Cc1nc2c3c(c(C(F)(F)F)cc2n1C)-c1cccn2c(C(=O)c4cc(F)c(NC(=O)/C=C/CNC5(C)CCOCC5)c(F)c4)cc(c12)CCO3` [Example 267, mono((E)-2-(3,5-difluoro-4-(4-((4-methyltetrahydro-2H-pyran-4-yl)ammonio)-but-2-enamido)benzoyl)-9,10-dimethyl-7-(trifluoro-methyl)-13,14-dihydro-9H-imidazo[4″,5″:5′,6′]-benzo[1′,2′:2,3]oxocino-[4,5,6-hi]indolizin-11-ium)mono(2,2,2-trifluoro-acetate)]: the IC50 was determined as 3.69 nM.

In the case of `Cc1nc2c3c(c(C(F)(F)F)cc2n1C)-c1cccn2c(C(=O)c4cc(F)c(NC(=O)/C(F)=C/CN[C@@H]5CCOC5)c(F)c4)cc(c12)CCO3` (atropisomer, axis not shown) [Example 252, (R,Z)-N-(4-(9,10-dimethyl-7-(trifluoromethyl)-13,14-dihydro-9H-imidazo[4″,5″:5′,6′]benzo[1′,2′:2,3]oxocino[4,5,6-hi]indolizine-2-carbonyl)-2,6-difluorophenyl)-2-fluoro-4-((tetrahydrofuran-3-yl)amino)but-2-enamide], the IC50 is 25.7 nM.

For the compound `CN1CCc2cc(C(=O)c3cc(F)c(NC(=O)/C=C/CNC4(C)COC4)c(F)c3)n3cccc(c23)-c2c(C(F)(F)F)cc3nn(C)cc3c21` (single isomer, unassigned) [Example 282, (E)-N-(4-((4-(10,12-dimethyl-7-(trifluorometh-yl)-10,12,13,14-tetrahydro-indolizino[8′,1′:4,5,6]-azocino[2,3-e]indazole-2-carbonyl)-2,6-difluoro-phenyl)amino)-4-oxobut-2-en-1-yl)-3-methyloxetan-3-aminium 2,2,2-trifluoro-acetate], the concentration for half-maximal inhibition (IC50) was 57.6 nM.

As for `Cc1nc2c3c(c(C(F)(F)F)cc2n1C)-c1cccn2c(C(=O)c4cc(F)c(NC(=O)/C=C/CN5CCC5CC(C)(C)O)c(F)c4)cc(c12)CCN3C` (single isomer, unassigned) [Example 298, (E)-1-(4-((2,6-difluoro-4-(9,10,12-trimethyl-7-(trifluoromethyl)-9,12,13,14-tetrahydro-imidazo[4″,5″:5′,6′]benzo-[1′,2′:2,3]azocino[4,5,6-hi]indolizine-2-carbonyl)-phenyl)amino)-4-oxobut-2-en-1-yl)-2-(2-hydroxy-2-methylpropyl)azetidin-1-ium 2,2,2-trifluoro-acetate], the half-inhibitory concentration (IC50) was 41.6 nM.

For `Cc1nc2c3c(c(C(F)(F)F)cc2n1C)-c1cccn2c(C(=O)c4cc(F)c(NC(=O)C(F)=CCN5CCCC5CO)c(F)c4)cc(c12)CCO3` [Example 294, mono(2-(3,5-difluoro-4-((Z)-2-fluoro-4-(2S)-2-(hydroxymethyl)pyrrol-idin-1-ium-1-yl)but-2-enamido)benzoyl)-9,10-dimethyl-7-(trifluorometh-yl)-13,14-dihydro-9H-imidazo[4″,5″:5′,6′]benzo-[1′,2′:2,3]oxocino[4,5,6-hi]indolizin-11-ium) mono(2,2,2-trifluoro-acetate)], the concentration for half-maximal inhibition (IC50) is 59.6 nM.
